Results published in US20110152212A1, “Aqueous Formulations” (priority 2007, published 2011).
Converted amounts (≈) assume the structure as drawn.

Tests used:
[1] = Solubility in 10% w/v hydroxypropyl cyclodextrin solution; format: physicochemical; details: for solubility: 10% w/v hydroxypropyl cyclodextrin solution, aqueous with cosolvent or surfactant or cyclodextrin, read-out: Solubility in 10% w/v Hydroxypropyl Cyclodextrin soln.
From the text: (§1) J. Pharm 302(2005), 18-28 and S. I. F. Badaway et al, Int. J. Pharmaceut.128(1996), 45-54.

[2] = Intrinsic solubility of drug; format: physicochemical
From the text: as §1

[3] = Solubility in Example 7 formulation (hydrogel in 50:50 wt % water/ethanol); format: physicochemical; details: 50:50 wt % water/ethanol with polyvinylalcohol and butylidene polymer; for solubility: aqueous with cosolvent or surfactant or cyclodextrin
From the text: As an alternative to the general procedure described in Example 2 and the procedures described in other examples, a solvent may comprise a 50:50 wt % water/ethanol solution. The polyvinylalcohol and butylidene polymer may be included in such a solvent and the mixture may then be acidified to a pH of not less than 2.5 to cause polyvinylalcohol and butylidene polymer to react in an acid catalysed reaction. A drug of low solubility may then be added to the mixture as described in the other examples.
as §1

[4] = aqueous formulation, Poval 220 polyvinylalcohol/butylidene polymer hydrogel (Example 3 process)
[5] = Time for solid drug to dissolve in acidified hydrogel mixture at ambient temperature with stirring; format: physicochemical; details: 0.2 wt % drug in 0.5 wt % hydrogel, pH about 2.5, ambient temperature
Experimental: A 0.5 wt % formulation of a hydrogel was prepared comprising Poval 220 polyvinylalcohol and the butylidene polymer of Example 1 in the weight ratio 10:1. The pH of the mixture was lowered to about 2.5 by addition of hydrochloric acid and, with the pH at the lowered level, doxorubicin, a solid red powder, was added at ambient temperature with stirring to give a level of 0.2 wt % doxorubicin in the mixture. […] After the formulation has been prepared, the pH may be raised to about 7 by addition of alkali to neutralise it.
A 2 wt % formulation of a hydrogel was prepared comprising KH-20 polyvinylalcohol and the butylidene polymer of Example 1 in a weight ratio 10:1. The pH of the mixture was lowered to about 2.5, by addition of hydrochloric acid. Then, doxycycline, in a solid form, was added at ambient temperature with stirring to give a level of 0.5 wt % of doxycycline in the mixture. The doxycycline appeared to dissolve in the water within about 15 minutes to give a clear pale yellow mixture which appeared to comprise a solution but more likely comprises complexed doxycycline.

physchem = details: pH 2.5, aqueous with cosolvent or surfactant or cyclodextrin, thermodynamic from solid

| Structure (SMILES) | solubility [1] [µg/mL] | solubility [2] [µg/mL] | solubility [3] [µg/mL] | Intrinsic Solubility [2] [µg/mL] | other results |
| --- | --- | --- | --- | --- | --- |
| Clc1ccc(COC(Cn2ccnc2)c2ccc(Cl)cc2Cl)c(Cl)c1 (stereo not drawn) [Miconazole] | 2460 (≈ 5.91 mM) | 90 (≈ 0.216 mM) | 4700 (≈ 11.3 mM) |  |  |
| COc1cccc2c1C(=O)c1c(O)c3c(c(O)c1C2=O)C[C@@](O)(C(=O)CO)C[C@@H]3O[C@H]1C[C@H](N)[C@H](O)[C@H](C)O1 [doxorubicin] |  |  |  |  | saturation solubility [4]: 11.5 % w/v; appeared to dissolve in the water (time) [5]: substantially instantaneously; solubility (physchem): 115000 µg/mL (≈ 212 mM) |
| Clc1ccccc1C(c1ccccc1)(c1ccccc1)n1ccnc1 [Clotrimazole] | 1210 (≈ 3.51 mM) |  | 11800 (≈ 34.2 mM) | 70 |  |
| CC(C)c1cccc(C(C)C)c1O [Propafol] |  |  |  | 160 | Solubility in 10% w/v Hydroxypropyl Cyclodextrin soln. [1]: 7690 µg/mL (≈ 43.1 mM); Example 7 formulation (solubility) [3]: 34800 µg/mL |
| Clc1ccc(COC(Cn2ccnc2)c2ccc(Cl)cc2Cl)cc1 (stereo not drawn) [Econazole] | 4990 (≈ 13.1 mM) | 370 (≈ 0.969 mM) | 12600 (≈ 33 mM) |  |  |
